Experimental findings from BindingDB's records for doi:10.7270/Q2K072QS (Burnham Center For Chemical Genomics, 2010) are described below.

As a reminder, the IC50 is the point on the concentration scale where inhibition reaches its midpoint.

The experiment addresses G-protein coupled receptor 35 (Homo sapiens, UniProt Q9HC97). The experiment can be described thus: GPR35 antagonists by imaging, SAR follow-up, selectivity assay for GPR55 agonist project, high-content imaging (AID 2338).

SMILES strings stand for the structures.

G-protein coupled receptor 35, sequence (Q9HC97 whole entry): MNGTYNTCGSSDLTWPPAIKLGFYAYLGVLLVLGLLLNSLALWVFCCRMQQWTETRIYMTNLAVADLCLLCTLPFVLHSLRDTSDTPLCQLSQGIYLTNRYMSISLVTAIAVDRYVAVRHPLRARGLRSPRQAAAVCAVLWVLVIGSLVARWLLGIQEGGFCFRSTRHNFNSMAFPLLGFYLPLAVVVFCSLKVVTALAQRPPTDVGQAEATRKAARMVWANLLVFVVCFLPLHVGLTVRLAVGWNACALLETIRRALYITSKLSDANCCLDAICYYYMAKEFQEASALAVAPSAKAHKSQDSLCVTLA

In turn, `C/C(C=NNC(=O)c1nnn(-c2nonc2N)c1CN1CCC(C)CC1)=C/c1ccccc1` came in with an IC50 of more than 32 µM. In the case of `COc1ccc2c(c1)cc(C)c1nnc(SCC(=O)N(C)c3nc(-c4ccccc4)cs3)n12` [MLS-0102574.0001], the IC50 is more than 32 µM.

In turn, `Cc1occc1C(=O)Nc1ccc(OCc2ccccc2)cc1` [2-methyl-N-(4-phenylmethoxyphenyl)furan-3-carboxamide] came in with a concentration for half-maximal inhibition (IC50) of more than 32 µM.

The compound `CCCN(CCC)Cc1c(C(=O)NN=C/C(C)=C\c2ccco2)nnn1-c1nonc1N` [1-(4-azanyl-1,2,5-oxadiazol-3-yl)-5-[(dipropylamino)methyl]-N-[[(Z)-3-(furan-2-yl)-2-methyl-prop-2-enylidene]amino]-1,2,3-triazole-4-carboxamide] showed a concentration for half-maximal inhibition (IC50) (inactive by the depositor's call) of 24.4 µM.

Take `COc1cc2c(cc1NC(=O)CSc1ccccc1)oc1ccccc12` [MLS000579482]: the IC50 was more than 32 µM. Same read-out and setting: then `COc1ccc(-c2csc(NC(=O)CSc3nnc4c(C)cc5ccccc5n34)n2)cc1` [N-[4-(4-methoxyphenyl)-1,3-thiazol-2-yl]-2-[(4-methyl-[1,2,4]triazolo[4,3-a]quinolin-1-yl)sulfanyl]ethanamide], with more than 32 µM. Still for that read-out and setting: then `CC(C)Oc1ccc(S(=O)(=O)N2CCOCC2)cc1NC(=O)c1ccc(N2CCCC2=O)cc1` [N-(5-morpholin-4-ylsulfonyl-2-propan-2-yloxy-phenyl)-4-(2-oxidanylidenepyrrolidin-1-yl)benzamide], with more than 32 µM; and `CCCN(CCC)Cc1c(C(=O)NN=C/C(C)=C\c2ccccc2)nnn1-c1nonc1N` [1-(4-azanyl-1,2,5-oxadiazol-3-yl)-5-[(dipropylamino)methyl]-N-[[(Z)-2-methyl-3-phenyl-prop-2-enylidene]amino]-1,2,3-triazole-4-carboxamide], with more than 32 µM. The compound `Cc1cccc(N2CCN(C(=O)c3cc(S(=O)(=O)N(C)C)ccc3N3CCCC3)CC2)c1C` showed a half-maximal inhibitory concentration (IC50) of more than 32 µM.

The compound `COc1ccc(S(=O)(=O)N2CCOCC2)cc1NC(=O)c1cc2c(s1)CCCC2` [N-[2-methoxy-5-(4-morpholinylsulfonyl)phenyl]-4,5,6,7-tetrahydro-1-benzothiophene-2-carboxamide] showed an IC50 of more than 32 µM. Same read-out and setting: then `COc1ccc2cc(C)c3nnc(SCC(=O)Nc4nc(-c5ccc(F)cc5)cs4)n3c2c1` [N-[4-(4-fluorophenyl)-1,3-thiazol-2-yl]-2-[(8-methoxy-4-methyl-[1,2,4]triazolo[4,3-a]quinolin-1-yl)sulfanyl]ethanamide], with more than 32 µM; and `CC(C)NS(=O)(=O)c1ccc(NC(=S)NC(=O)c2ccc(-c3ccccc3)cc2)cc1` [SMR000200853], with more than 32 µM; and `COc1ccccc1C=CC(=O)NC(=S)Nc1ccc(S(=O)(=O)N(C)c2ccccc2)cc1`, with more than 32 µM. Same read-out and setting: then `CC(Sc1nc2cc(Cl)ccc2s1)C(=O)Nc1cccc(S(=O)(=O)N2CCOCC2)c1` (stereo unspecified) [SMR000243093], with more than 32 µM; and `O=C(CSc1nc2ccccc2s1)N1c2ccccc2Sc2ccc(C(F)(F)F)cc21`, with more than 32 µM. The same measure, in the same setting: then `CC(C)=CC(=O)Nc1ccc(OCc2ccccc2)cc1` [3-methyl-N-(4-phenylmethoxyphenyl)but-2-enamide], with more than 32 µM; and `CN(C)S(=O)(=O)c1ccc(N2CCCC2)c(C(=O)N2CCN(c3ccc([N+](=O)[O-])cc3)CC2)c1` [SMR000370611], with more than 32 µM.

In turn, `COc1cc2c(cc1NC(=O)C(C)Sc1ccc(NC(C)=O)cc1)oc1ccccc12` (stereo unspecified) [2-[(4-acetamidophenyl)thio]-N-(2-methoxy-3-dibenzofuranyl)propanamide] yielded an IC50 of more than 32 µM.

The compound `C=CCN(CC=C)S(=O)(=O)c1ccc(NC(=S)NC(=O)c2ccc(-c3ccccc3)cc2)cc1` had a half-maximal inhibitory concentration (IC50) of more than 32 µM. On the same count and under the same terms, then `O=C(CSc1nc2ccccc2s1)N1c2ccccc2Sc2ccc(Cl)cc21` [SMR000198068], with more than 32 µM. The same measure, in the same setting: then `CCCN(CCC)Cc1c(C(=O)NN=Cc2c[nH]c3ccccc23)nnn1-c1nonc1N`, with more than 32 µM.
